Publication PMC8479757 (Chemosphere, 2020)

Tests used:
[1] = tested on: HSA; conditions: 310 K; cited from earlier work
[2] = United States population, 2015–2016; cited from earlier work
[3] = target: bovine serum albumin (BSA) (Bos taurus, UniProt P02769); format: binding; conditions: 310 K; for critical [PFAS]:[BSA] ratio denoting the shift from binding site to surface adsorption: Δδ begins to plateau
[4] = estimated; cited from earlier work

bovine serum albumin (BSA), sequence (P02769 25-607): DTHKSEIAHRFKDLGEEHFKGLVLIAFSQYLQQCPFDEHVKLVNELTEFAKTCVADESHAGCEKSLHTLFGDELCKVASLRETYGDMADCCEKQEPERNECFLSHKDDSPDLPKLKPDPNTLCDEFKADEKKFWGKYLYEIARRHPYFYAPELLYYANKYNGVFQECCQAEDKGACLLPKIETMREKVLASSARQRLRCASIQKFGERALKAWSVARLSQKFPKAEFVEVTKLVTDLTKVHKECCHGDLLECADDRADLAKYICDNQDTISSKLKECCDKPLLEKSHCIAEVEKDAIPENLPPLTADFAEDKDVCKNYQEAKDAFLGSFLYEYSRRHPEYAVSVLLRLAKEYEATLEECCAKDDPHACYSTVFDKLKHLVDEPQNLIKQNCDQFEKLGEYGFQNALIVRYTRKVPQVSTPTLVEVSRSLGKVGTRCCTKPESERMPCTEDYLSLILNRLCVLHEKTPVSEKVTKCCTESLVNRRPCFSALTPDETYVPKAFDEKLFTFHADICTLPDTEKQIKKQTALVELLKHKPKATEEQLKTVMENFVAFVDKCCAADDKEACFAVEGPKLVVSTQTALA

| SMILES | Ka for binding to HSA [1] [mM⁻¹] | average serum concentration [2] [µg/L] | critical [PFAS]:[BSA] ratio denoting the shift from binding site to surface adsorption [3] | further results |
| --- | --- | --- | --- | --- |
| CCCCCCCCCC(=O)O [decanoic acid] | 100 | – | – | – |
| O=S(=O)(O)C(F)(F)C(F)(F)C(F)(F)C(F)(F)C(F)(F)C(F)(F)F [PFHxS, perfluorohexanesulfonic acid] | – | 0.577 | 12–14 | – |
| O=C(O)C(F)(F)C(F)(F)C(F)(F)C(F)(F)C(F)(F)C(F)(F)C(F)(F)F [PFOA, perfluorooctanoic acid] | – | 1.56 | 12–14 | Kd ([3]; Ka (ω, terminal −CF3 position), BSA, pH 7.4 PBS, Ka=Kd^−1): 6.45 µM |
| CCCCCC(=O)O [hexanoic acid] | 15 | – | – | – |
| O=C(O)C(F)(F)C(F)(F)C(F)(F)C(F)(F)C(F)(F)C(F)(F)C(F)(F)C(F)(F)F [PFNA, perfluorononanoic acid] | – | 1.18 | 12–14 | half-life in humans [4]: 2.5 years |
| CCCCCCCC(=O)O [octanoic acid] | 34 | – | – | – |
| O=S(=O)(O)C(F)(F)C(F)(F)C(F)(F)C(F)(F)C(F)(F)C(F)(F)C(F)(F)C(F)(F)F [PFOS, perfluorooctanesulfonic acid] | – | 4.72 | – | Ka (ω, terminal −CF3 position) ([3]; BSA, pH 7.4 PBS, Ka=Kd^−1): 357 mM⁻¹; half-life in humans [4]: 5.4 years |
